# Experimental data published in patent publication US12485114B2, “Materials and methods useful to induce cancer cell death via methuosis or autophagy or a combination thereof” (The University of Toledo, priority 2017, dated 2025).
# How the values were obtained:
# HCT116 cells = assay: Electron microscopy of treated cells; type: cell-based
# Procedure: The vacuoles are indicated by V in FIG. 31. The single membranes of the vacuoles are destroyed (indicated by arrows in FIG. 31), allowing small vacuoles to merge, forming bigger vacuoles.
# The vacuoles are fluid filled with traces of membranes due to vacuoles fusion events. The nuclei are healthy with no signs of chromatin condensation and are unaffected at even a high concentration (30 μM). However, as the vacuoles coalesce and grow in size, the nuclei are pushed on the edges of the cells. The nuclei are indicated by white N, and the vacuoles are indicated by black arrows, in FIG. 32.
# (FIG. 38). The ER is indicated by black arrows.
# zebrafish = assay: Safety in zebrafish; type: in vivo; conditions: 100 μM
# Procedure: The safety of BAPT-27 was studied in zebrafish. BAPT-27 is safe in zebrafish even at a very high concentration of 100 μM. The fish were healthy with no changes in their morphology, swim positions, or their cardiac parameters. (FIG. 52).
# [1] = tested on: HT29 colon cancer cell line; assay: Morphological assessment of vacuolization; type: cell-based
# Description: (§1) The methuophagy inducing activities of BAPT-27 were also prominent in different colon cancer cell lines with different genetic profiles. […] (FIG. 42). However, the vacuoles formation was not prominent in normal epithelial colon cells (CRL-1459). (FIG. 42).
# HCT-116 (colon cancer) = assay: Morphological assessment of vacuolization; type: cell-based
# Description: as §1
# [2] = tested on: HCT15 colon cancer cell line; assay: Morphological assessment of vacuolization; type: cell-based
# Description: as §1
# [3] = tested on: HCT116, HCT116 Bax −/−, HCT116 Bak −/−, HCT116 Bax/Bak−/−; assay: Death in apoptosis resistant colon cancer cell lines; type: cell-based; conditions: cell lines missing pro-apoptotic genes Bax and Bak
# Description: The cells became sensitive to the cytotoxicity of mitoxantrone when combined with BAPT-27. Further, BAPT-27 induced death in apoptosis resistant cell lines including colon cancer cell lines that are missing important pro-apoptotic genes Bax and Bak using well established models (HCT116, HCT116 Bax −/−, HCT116 Bak −/−, HCT116 Bax/Bak−/−). Accordingly, BAPT-27 represents a family of compounds that induce cell death in sensitive and resistant cancers, as well as those cancers that are refractory to death by conventional apoptosis inducing anticancer agents.
# macropinocytosis = assay: Lucifer yellow dye uptake (macropinocytosis); type: cell-based; conditions: 10 μM, 6 h treatment
# Description: (§2) BAPT-27 induced vacuoles that combine both methuosis and autophagy characteristics. […] The author mechanism involved in this non-conventional cell death mechanism is a special type of […] that has been termed methuosis. The treatment of cells by BAPT-27 caused the displacement of the cytoplasm by vacuoles derived from macropinosomes. At early time points, the vacuoles are small in size. The small vacuoles then increase in number, and then fuse with each other over time forming larger vacuoles that cover the whole cytoplasm. Eventually, this causes a disturbance of the cell membrane and burst of the cells, release of fluids, detachment of cell, and death. […] Accordingly, alteration in both autophagic and methuosis mechanisms are involved in the BAPT-27 cell death process.
# TFEB-mTOR pathway = assay: mTOR, Beclin-1 and LC3B-II autophagy related markers; type: cell-based
# Description: Autophagosome and lysosomal homeostasis is governed by transcription factor EB (TFEB)—mTOR signaling pathways (TFEB-mTOR pathway). […] (FIG. 51A & FIG. 51B & FIG. 51C).
# HCT-116 cells = assay: 3D transmission electron tomography of lysosomes; type: cell-based
# Description: The 3D reconstruction was loaded into the Avizo 3D Visualization software to reveal lysosomal structure through volume rendering and segmentation. FIGS. 50B-50C show increased autophagic vesicles (yellow) and increased lysosomal cargo (green).
# (FIG. 50A & FIG. 50B & FIG. 50C).
# [4] = tested on: autophagic signaling pathways; assay: Autophagy markers and autophagy inhibitors (acridine orange, LC3B, 3-MA, chloroquine); type: cell-based
# Description: as §2
# Without wishing to be bound by theory, it is believed that the mechanism by which BAPT-27 is produces its activities is due to alteration in key signaling pathways and several cellular events: (1) significant activation of macropinocytosis (FIGS. 32-33), and (2) significant alteration in autophagic signaling resulting in the accumulation of autophagic markers such as LC3 II and acridine orange (FIG. 37).
# At 6 h treatment, the vacuoles were tiny and smaller in size in combination compared to BAPT-27 alone. (FIG. 48). […] (FIG. 48).
compound,measurement,setting,value
"Sc1nnc(-c2ccncc2)n1/N=C/c1c[nH]c2ccccc12 [BAPT-27, 4-(((1H-Indol-3-Yl)Methylene)Amino)-5-(Pyridin-4-Yl)-4H-1,2,4-Triazole-3-Thiol]",formation of single membrane vacuoles (electron microscopy),HCT116 cells; 10 μM,extensive formation of single membrane vacuoles
same,state of nuclei (electron microscopy),HCT116 cells; high concentration (30 μM),unaffected
same,state of endoplasmic reticulum (electron microscopy),HCT116 cells; highest concentration 100 μM,normal and not stressed
same,"changes in morphology, swim positions, or cardiac parameters",zebrafish,no changes
same,safety in zebrafish,zebrafish,safe
same,vacuolization,[1],extensive vacuoles formation
same,vacuolization,HCT-116 (colon cancer),extensive vacuoles formation
same,vacuolization,[2],extensive vacuoles formation
same,cell death in apoptosis resistant cell lines,[3],induced death
same,Lucifer yellow dye in formed vacuoles,macropinocytosis,Extensive accumulation
same,Beclin-1 level,TFEB-mTOR pathway,increased
same,LC3B-II level,TFEB-mTOR pathway,increased
same,mTOR level,TFEB-mTOR pathway,significantly downregulated
same,autophagic vesicles and lysosomal cargo,HCT-116 cells,increased autophagic vesicles and increased lysosomal cargo
same,lysosomal size,HCT-116 cells,significant increase in lysosomal size
same,LC3B cleavage and LC3B loci at the borders of the vacuoles,[4],induced the cleavage of LC3B
same,acridine orange in vacuoles (activated acidic compartments),[4],accumulation of acridine orange
same,inhibition of vacuoles formation or cytotoxic effects by autophagy inhibitors 3-MA and chloroquine,[4],did not inhibit
same,block of vacuoles formation by 3-methyl adenine,"[4]; 3-MA 300 μM, BAPT-27 10 μM, 24 h and 72 hr",does not block
same,effect of chloroquine on vacuoles formation,"[4]; CQ 5 μM, BAPT-27 10 μM, 6 h",delay of vacuoles formation
same,effect of chloroquine on vacuoles regaining normal size,"[4]; CQ 5 μM, BAPT-27 10 μM, 24 h",could not prevent
